Reference: ChEMBL document CHEMBL5506061, “Chb-M', an Inhibitor of the RUNX Family Binding to DNA, Induces Apoptosis in p53-Mutated Non-Small Cell Lung Cancer and Inhibits Tumor Growth and Repopulation In Vivo” (J Med Chem, 2024)
Activity calls are given as the source filed them. No cut-off for these calls is given here.

Columns and labels:
NCI-H2228-Luc [1] = experiment: Anticancer activity against p53-mutated human NCI-H2228-Luc cells assessed as cell viability incubated for 72 hrs by SF - cell counting reagent based colorimetric assay; format: functional; settings: dose 0.3-3 µM
BJ = experiment: Cytotoxicity against human BJ cells assessed as cell viability at 0.3 to 3 uM incubated for 72 hrs by SF - cell counting reagent based colorimetric assay; format: toxicity; settings: dose 0.3-3 µM
NCI-H2228-Luc [2] = experiment: Induction of apoptosis in p53-mutated human NCI-H2228-Luc cells assessed as early apoptotic cells at 0.3 to 3 uM incubated for 72 hrs by Annexin V-FITC and propidium iodide (PI) staining based flow cytometric analysis; format: functional, cell-based; settings: dose 0.3-3 µM
NCI-H2228-Luc [3] = experiment: Induction of apoptosis in p53-mutated human NCI-H2228-Luc cells assessed as late apoptotic cells at 0.3 to 3 uM incubated for 72 hrs by Annexin V-FITC and propidium iodide (PI) staining based flow cytometric analysis; format: functional, cell-based; settings: dose 0.3-3 µM
NCI-H2228-Luc [4] = experiment: Induction of apoptosis in p53-mutated human NCI-H2228-Luc cells assessed as decrease in BCL11A mRNA expression at 0.3 to 1 uM incubated for 24 hrs by RT-qPCR analysis; format: functional, cell-based; settings: dose 0.3-1 µM
NCI-H2228-Luc [5] = experiment: Induction of apoptosis in p53-mutated human NCI-H2228-Luc cells assessed as increase in TAp73 mRNA expression incubated for 24 hrs by RT-qPCR analysis; format: functional, cell-based
NCI-H2228-Luc [6] = experiment: Induction of RUNX1 mRNA level in human NCI-H2228-Luc cells at 0.3 to 3 uM incubated for 24 hrs by RT-qPCR analysis; format: functional, cell-based; settings: dose 0.3-3 µM
NCI-H2228-Luc [7] = experiment: Induction of RUNX2 mRNA level in human NCI-H2228-Luc cells at 0.3 to 3 uM incubated for 24 hrs by RT-qPCR analysis; format: functional, cell-based; settings: dose 0.3-3 µM
NCI-H2228-Luc [8] = experiment: Induction of RUNX3 mRNA level in human NCI-H2228-Luc cells at 0.3 to 3 uM incubated for 24 hrs by RT-qPCR analysis; format: functional, cell-based; settings: dose 0.3-3 µM
NCI-H2228-Luc [9] = experiment: In vivo antitumor activity against human NCI-H2228-Luc cells xenografted in CB17.Cg.Prkdc-scid Lystbg-j/CrlCrlj mouse assessed as reduction in tumor volume at 5 mg/kg, iv (tail vein) administered twice a week (10 injections in total) measured after 3 days; format: functional, organism-based; settings: time 38.0 day
[10] = Toxicity in CB17.Cg.Prkdc-scid Lystbg-j/CrlCrlj mouse xenografted with human NCI-H2228-Luc cells assessed as change in body weight at 5 mg/kg, iv (tail vein) administered twice a week (10 injections in total) measured after 3 days; format: organism-based; settings: in vivo, 912 h, time 38 day
NCI-H2228-Luc [11] = experiment: In vivo antitumor activity against human NCI-H2228-Luc cells xenografted in CB17.Cg.Prkdc-scid Lystbg-j/CrlCrlj mouse assessed as prolonged reduction in tumor volume at 5 mg/kg, iv (tail vein) administered twice a week (10 injections in total) measured after 35 days of last dose relative to alectinib and ceritinib; format: functional, organism-based; settings: time 70.0 day
[12] = Hematological toxicity in CB17.Cg.Prkdc-scid Lystbg-j/CrlCrlj mouse xenografted with human NCI-H2228-Luc cells assessed as decrease in platelets at 10 mg/kg, iv (tail vein) administered twice a week (10 injections in total) measured after 3 days; format: organism-based; settings: in vivo, 912 h, time 38 day
[13] = Hematological toxicity in wild type mouse C-kit positive fraction of bone marrow cells assessed as decrease in colony forming capacity at 10 uM; format: cell-based; settings: bone marrow cell
[14] = Hematological toxicity in CB17.Cg.Prkdc-scid Lystbg-j/CrlCrlj mouse xenografted with human NCI-H2228-Luc cells assessed as change in peripheral blood cell count at 320 microg/kg, iv for 3 months; format: organism-based; settings: in vivo, 0.32 mg/kg, 2190 h, dose 320 µg/kg
NCI-H2228-Luc [15] = experiment: In vivo antitumor activity against human NCI-H2228-Luc cells xenografted in CB17.Cg.Prkdc-scid Lystbg-j/CrlCrlj mouse assessed as reduction in tumor volume at 25 mg/kg, po administered every day (35 administration in total); format: functional, organism-based; settings: time 35.0 day
NCI-H2228-Luc [16] = experiment: In vivo antitumor activity against human NCI-H2228-Luc cells xenografted in CB17.Cg.Prkdc-scid Lystbg-j/CrlCrlj mouse assessed as prolonged reduction in tumor volume (cancer free) at 25 mg/kg, po administered every day (35 administration in total) measured after 15 days of last dose; format: functional, organism-based; settings: time 50.0 day
NCI-H2228-Luc [17] = experiment: In vivo antitumor activity against human NCI-H2228-Luc cells xenografted in CB17.Cg.Prkdc-scid Lystbg-j/CrlCrlj mouse assessed as prolonged reduction in tumor volume at 25 mg/kg, po administered every day (35 administration in total) measured after 70 days of last dose; format: functional, organism-based; settings: time 70.0 day
NCI-H2228-Luc [18] = experiment: In vivo antitumor activity against human NCI-H2228-Luc cells xenografted in CB17.Cg.Prkdc-scid Lystbg-j/CrlCrlj mouse assessed as prolonged reduction in tumor volume (cancer free) at 25 mg/kg, po administered every day (35 administration in total) measured after 8 days of last dose; format: functional, organism-based; settings: time 43.0 day
NCI-H2228-Luc [19] = experiment: In vivo antitumor activity against human NCI-H2228-Luc cells xenografted in CB17.Cg.Prkdc-scid Lystbg-j/CrlCrlj mouse assessed as prolonged reduction in tumor volume at 25 mg/kg, po administered every day (35 administration in total) measured after 77 days of last dose; format: functional, organism-based; settings: time 77.0 day
NCI-H2228-Luc [20] = experiment: Anticancer activity against p53-mutated human NCI-H2228-Luc cells assessed as cell viability at 0.3 to 3 uM incubated for 72 hrs by SF - cell counting reagent based colorimetric assay; format: functional; settings: dose 0.3-3 µM

In the case of CN(C)CCCNC(=O)c1cc(NC(=O)c2cc(NC(=O)c3cc(NC(=O)c4cc(NC(=O)CCCNC(=O)c5nc(NC(=O)c6nc(NC(=O)c7cc(NC(=O)c8nc(NC(=O)CCNC(=O)CCCc9ccc(N(CCCl)CCCl)cc9)cn8C)cn7C)cn6C)cn5C)cn4C)cn3C)cn2C)cn1C, the Activity (NCI-H2228-Luc [1]) is reported as “Dose-Dependent Effect”, the Activity (BJ) is reported as “Non-Toxic” and the Activity (NCI-H2228-Luc [2]) is reported as “Active”. The Activity (NCI-H2228-Luc [3]) was “Active”, the Activity (NCI-H2228-Luc [4]) was “Active” and the Activity (NCI-H2228-Luc [5]) was “Dose-Dependent Effect”. For the same compound, the Activity (NCI-H2228-Luc [6]) was “Active”, the Activity (NCI-H2228-Luc [7]) was “Active” and the Activity (NCI-H2228-Luc [8]) was “Active”. For the same compound, the Activity (NCI-H2228-Luc [9]) was “Active”, the Activity [10] was “Non-Toxic” and the Activity (NCI-H2228-Luc [11]) was “Active”. For the same compound, the Activity [12] was “Non-Toxic”, the Activity [13] was “Non-Toxic” and the Activity [14] was “Non-Toxic”.
In the case of Cc1cc(Nc2ncc(Cl)c(Nc3ccccc3S(=O)(=O)C(C)C)n2)c(OC(C)C)cc1C1CCNCC1, the Activity (NCI-H2228-Luc [15]) is reported as “Active”, the Activity (NCI-H2228-Luc [16]) is reported as “Active” and the Activity (NCI-H2228-Luc [17]) is reported as “inactive”.
In the case of CCc1cc2c(cc1N1CCC(N3CCOCC3)CC1)C(C)(C)c1[nH]c3cc(C#N)ccc3c1C2=O, the Activity (NCI-H2228-Luc [15]) is reported as “Active”, the Activity (NCI-H2228-Luc [18]) is reported as “Active” and the Activity (NCI-H2228-Luc [19]) is reported as “inactive”.
In the case of CN(C)CCCNC(=O)c1cc(NC(=O)c2cc(NC(=O)c3cc(NC(=O)c4cc(NC(=O)CCCNC(=O)c5nc(NC(=O)c6nc(NC(=O)c7cc(NC(=O)c8nc(NC(=O)CCNC(=O)CCCc9ccc(N(CCO)CCO)cc9)cn8C)cn7C)cn6C)cn5C)cn4C)cn3C)cn2C)cn1C, the Activity (NCI-H2228-Luc [20]) is reported as “inactive” and the Activity (BJ) is reported as “Non-Toxic”.
With CN(C)CCCNC(=O)c1cc(NC(=O)c2cc(NC(=O)c3nc(NC(=O)c4nc(NC(=O)CCCNC(=O)c5cc(NC(=O)c6cc(NC(=O)c7nc(NC(=O)c8nc(NC(=O)CCNC(=O)CCCc9ccc(N(CCCl)CCCl)cc9)cn8C)cn7C)cn6C)cn5C)cn4C)cn3C)cn2C)cn1C the Activity (NCI-H2228-Luc [20]) was “inactive” and the Activity (BJ) was “Non-Toxic”.
With O=C(O)CCCc1ccc(N(CCCl)CCCl)cc1 [CHLORAMBUCIL] the Activity (NCI-H2228-Luc [20]) was “inactive” and the Activity (BJ) was “Non-Toxic”.
